Measured values from patent US7355047B2, “Substituted quinolone carboxylic acids, their derivatives, site of action, and uses thereof” (The Regents of the University of California, priority 2002, dated 2008).

Assays:
[1] = system: GABAA receptor complex (GRC); test: [35S]TBPS binding dissociation, mouse forebrain; details: 2 nM [35S]TBPS, initiated by 10 μM compound 3, 10 μM mefenamic acid, FIG. 13
[2] = system: GABAA receptor complex (GRC); test: [35S]TBPS binding assay, rat cortex; details: 2 nM [35S]TBPS, rat cortex; for IC50: read-out: IC50 (inhibition of [35S]TBPS binding); for % Inhibition of 2 nM TBPS in Rat Cortex at 10 μM: 10 μM compound, plain numbers = inhibition
[3] = system: GABAA receptor complex (GRC); test: [35S]TBPS binding, rat cerebellum; details: 2 nM [35S]TBPS, 30 μM furosemide, FIG. 14

Cc1cccc(Nc2ccccc2C(=O)O)c1C [mefenamic acid, reference compound]
dissociation of [35S]TBPS binding in absence or presence of mefenamic acid [1]: accelerate the dissociation of [^35S]TBPS binding

CN1C(=O)CN=C(c2ccc(Cl)cc2)c2cc(Cl)ccc21 [4′-chlorodiazepam, reference compound]
effect on [35S]TBPS binding in absence or presence of Ro5-4864 (4′-chlorodiazepam) ([2]; 0.3, 1 and 30 μM Ro5-4864, FIG. 11): inability of 4′-chlorodiazepam to produce a dose-dependent rightward parallel shift

CCCNC(=O)c1cn(CC)c2cc(Cl)c(NC3CCCc4ccccc43)cc2c1=O (stereo not drawn)
IC50 [2]: 1500 nM | % Inhibition of 2 nM TBPS in Rat Cortex at 10 μM [2]: 86%

CCn1cc(C(=O)O)c(=O)c2cc(NCC(C)c3ccccc3)c(Cl)cc21 (stereo not drawn)
IC50 [2]: 4000 nM | % Inhibition of 2 nM TBPS in Rat Cortex at 10 μM [2]: 65%

CCCC(C)C1(CC)C(=O)NC(=O)NC1=O (stereo not drawn) [pentobarbital, reference compound]
dissociation of [35S]TBPS binding in absence or presence of pentobarbital ([2]; initiated by 10 μM compound 3, 30 μM pentobarbital, FIG. 10): accelerate the dissociation of [^35S]TBPS binding

CCOC(=O)c1cn(CC)c2cc(Cl)c(NC3CCCc4ccccc43)cc2c1=O (stereo not drawn)
IC50 [2]: 880 nM

CCn1cc(C(=O)O)c(=O)c2cc(NC3CCCc4ccccc43)c(Cl)cc21 (stereo not drawn) [drawing 15]
IC50 [2]: 2700 nM | % Inhibition of 2 nM TBPS in Rat Cortex at 10 μM [2]: 70%

CCn1cc(C(=O)O)c(=O)c2cc(NC(C)CCc3ccccc3)c(Cl)cc21 (stereo not drawn)
IC50 [2]: 2000 nM | % Inhibition of 2 nM TBPS in Rat Cortex at 10 μM [2]: 84%

NS(=O)(=O)c1cc(C(=O)O)c(NCc2ccco2)cc1Cl [furosemide, reference compound]
effect on [35S]TBPS binding in absence or presence of furosemide [3]: inability of furosemide to produce a dose-dependent rightward parallel shift

C[C@H](O)[C@H]1CC[C@H]2[C@@H]3CC[C@H]4C[C@H](O)CC[C@]4(C)[C@H]3CC[C@]12C [5α,20α-diol, 5α-pregnan-3α,20α-diol, reference compound]
interaction with 5α,20α-diol inhibition of [35S]TBPS binding (neurosteroid site) ([2]; 10 μM compound 3 or 100 nM 3α,5α-P, FIG. 8): antagonize the effect of 3α,5α-P

CCn1cc(C(=O)O)c(=O)c2cc(F)c(N3CCNCC3)cc21 [norfloxacin, reference compound]
effect on [35S]TBPS binding in absence or presence of norfloxacin ([2]; 30 μM and 100 μM norfloxacin, FIG. 9): inability of norfloxacin to produce a dose-dependent rightward parallel shift
